Experimental data published in article doi:10.1101/2020.06.11.145995v1 (biorxiv, 2020).
Read-outs that look alike come from different tables or passages of the source.

Key:
Assay in all cases: biochemical
FGFR3 = FGFR3 (Homo sapiens, UniProt P22607)
MKNK2 = MKNK2 (Homo sapiens, UniProt Q9HBH9)
CDC2L5 = CDC2L5 (Homo sapiens, UniProt Q14004)
LCK = LCK (Homo sapiens, UniProt P06239)
ICK = ICK (Homo sapiens, UniProt Q9UPZ9)
BRAF = BRAF (Homo sapiens, UniProt P15056)
CSNK1G3 = CSNK1G3 (Homo sapiens, UniProt Q9Y6M4)
CAMK2D = CAMK2D (Homo sapiens, UniProt Q13557)
DYRK1A = DYRK1A (Homo sapiens, UniProt Q13627)
CDK8 = CDK8 (Homo sapiens, UniProt P49336)
CAMK4 = CAMK4 (Homo sapiens, UniProt Q16566)
MAST1 = MAST1 (Homo sapiens, UniProt Q9Y2H9)
BIKE = BIKE (Homo sapiens, UniProt Q9NSY1)
CDC2L1 = CDC2L1 (Homo sapiens, UniProt P21127)
MELK = MELK (Homo sapiens, UniProt Q14680)
FAK = FAK (Homo sapiens, UniProt Q05397)
FRK = FRK (Homo sapiens, UniProt P42685)
AURKC = AURKC (Homo sapiens, UniProt Q9UQB9)
AURKB = AURKB (Homo sapiens, UniProt Q96GD4)
MST3 = MST3 (Homo sapiens, UniProt Q9Y6E0)
LATS2 = LATS2 (Homo sapiens, UniProt Q9NRM7)
IRAK1 = IRAK1 (Homo sapiens, UniProt P51617)
CLK4 = CLK4 (Homo sapiens, UniProt Q9HAZ1)
CAMKK2 = CAMKK2 (Homo sapiens, UniProt Q96RR4)
CSNK1D = CSNK1D (Homo sapiens, UniProt P48730)
CASK = CASK (Homo sapiens, UniProt O14936)
ACVR2A = ACVR2A (Homo sapiens, UniProt P27037)
GSK3A = GSK3A (Homo sapiens, UniProt P49840)
FGFR1 = FGFR1 (Homo sapiens, UniProt P11362)
MAK = MAK (Homo sapiens, UniProt P20794)
[1] = read-out: CPT-1-70-1 (1uM) % control
[2] = read-out: HYJ-2-002-1 (1uM) % control

Sequence of CAMKK2 (Q96RR4 whole entry): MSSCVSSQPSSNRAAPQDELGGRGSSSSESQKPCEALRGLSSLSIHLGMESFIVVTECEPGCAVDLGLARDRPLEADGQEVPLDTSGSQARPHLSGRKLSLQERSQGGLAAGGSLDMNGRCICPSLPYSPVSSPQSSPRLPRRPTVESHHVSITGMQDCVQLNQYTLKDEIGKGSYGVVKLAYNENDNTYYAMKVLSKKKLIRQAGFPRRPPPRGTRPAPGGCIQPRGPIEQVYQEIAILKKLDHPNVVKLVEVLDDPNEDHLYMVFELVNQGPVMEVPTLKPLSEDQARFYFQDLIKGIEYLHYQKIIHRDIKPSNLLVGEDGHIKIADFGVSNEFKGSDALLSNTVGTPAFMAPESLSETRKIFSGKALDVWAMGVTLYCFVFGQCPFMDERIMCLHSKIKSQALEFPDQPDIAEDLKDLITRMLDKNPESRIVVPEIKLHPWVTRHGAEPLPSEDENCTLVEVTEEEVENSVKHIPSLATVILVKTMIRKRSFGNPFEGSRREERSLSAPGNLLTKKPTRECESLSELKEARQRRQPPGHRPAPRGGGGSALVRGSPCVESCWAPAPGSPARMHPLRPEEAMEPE
Sequence of BRAF (P15056 whole entry): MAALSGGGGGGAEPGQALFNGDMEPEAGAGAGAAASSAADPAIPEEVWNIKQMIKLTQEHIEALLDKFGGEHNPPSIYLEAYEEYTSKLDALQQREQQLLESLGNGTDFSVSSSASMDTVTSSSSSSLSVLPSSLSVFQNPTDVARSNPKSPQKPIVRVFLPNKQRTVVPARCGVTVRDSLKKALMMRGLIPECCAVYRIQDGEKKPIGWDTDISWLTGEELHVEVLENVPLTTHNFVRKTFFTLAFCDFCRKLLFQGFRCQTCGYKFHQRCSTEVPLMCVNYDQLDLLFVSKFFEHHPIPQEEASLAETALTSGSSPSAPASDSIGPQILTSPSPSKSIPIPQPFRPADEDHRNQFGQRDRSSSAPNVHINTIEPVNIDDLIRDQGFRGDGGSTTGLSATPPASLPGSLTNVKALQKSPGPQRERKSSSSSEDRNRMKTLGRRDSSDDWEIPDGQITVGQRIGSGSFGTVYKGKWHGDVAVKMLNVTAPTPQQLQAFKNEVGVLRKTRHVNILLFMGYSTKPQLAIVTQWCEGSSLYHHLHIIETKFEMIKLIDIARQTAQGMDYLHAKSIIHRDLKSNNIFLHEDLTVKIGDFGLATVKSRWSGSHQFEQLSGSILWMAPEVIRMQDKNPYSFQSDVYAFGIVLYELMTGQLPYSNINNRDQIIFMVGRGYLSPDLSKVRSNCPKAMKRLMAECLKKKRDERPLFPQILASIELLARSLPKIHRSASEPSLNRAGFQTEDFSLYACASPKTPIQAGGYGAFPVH
Sequence of FRK (P42685 whole entry): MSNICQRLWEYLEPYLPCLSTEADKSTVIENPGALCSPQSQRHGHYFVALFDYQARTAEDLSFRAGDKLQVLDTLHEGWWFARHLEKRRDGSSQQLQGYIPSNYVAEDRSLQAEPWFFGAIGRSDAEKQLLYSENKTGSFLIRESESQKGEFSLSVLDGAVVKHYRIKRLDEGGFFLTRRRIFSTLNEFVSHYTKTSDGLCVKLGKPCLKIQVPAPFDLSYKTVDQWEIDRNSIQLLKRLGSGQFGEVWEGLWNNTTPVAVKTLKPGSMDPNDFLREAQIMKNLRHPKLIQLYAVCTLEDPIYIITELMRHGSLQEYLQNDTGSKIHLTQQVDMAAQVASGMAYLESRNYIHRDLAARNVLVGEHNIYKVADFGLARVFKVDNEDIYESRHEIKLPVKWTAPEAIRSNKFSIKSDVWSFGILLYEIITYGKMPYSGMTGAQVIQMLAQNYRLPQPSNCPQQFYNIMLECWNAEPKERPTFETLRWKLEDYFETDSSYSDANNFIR
Sequence of BIKE (Q9NSY1 whole entry): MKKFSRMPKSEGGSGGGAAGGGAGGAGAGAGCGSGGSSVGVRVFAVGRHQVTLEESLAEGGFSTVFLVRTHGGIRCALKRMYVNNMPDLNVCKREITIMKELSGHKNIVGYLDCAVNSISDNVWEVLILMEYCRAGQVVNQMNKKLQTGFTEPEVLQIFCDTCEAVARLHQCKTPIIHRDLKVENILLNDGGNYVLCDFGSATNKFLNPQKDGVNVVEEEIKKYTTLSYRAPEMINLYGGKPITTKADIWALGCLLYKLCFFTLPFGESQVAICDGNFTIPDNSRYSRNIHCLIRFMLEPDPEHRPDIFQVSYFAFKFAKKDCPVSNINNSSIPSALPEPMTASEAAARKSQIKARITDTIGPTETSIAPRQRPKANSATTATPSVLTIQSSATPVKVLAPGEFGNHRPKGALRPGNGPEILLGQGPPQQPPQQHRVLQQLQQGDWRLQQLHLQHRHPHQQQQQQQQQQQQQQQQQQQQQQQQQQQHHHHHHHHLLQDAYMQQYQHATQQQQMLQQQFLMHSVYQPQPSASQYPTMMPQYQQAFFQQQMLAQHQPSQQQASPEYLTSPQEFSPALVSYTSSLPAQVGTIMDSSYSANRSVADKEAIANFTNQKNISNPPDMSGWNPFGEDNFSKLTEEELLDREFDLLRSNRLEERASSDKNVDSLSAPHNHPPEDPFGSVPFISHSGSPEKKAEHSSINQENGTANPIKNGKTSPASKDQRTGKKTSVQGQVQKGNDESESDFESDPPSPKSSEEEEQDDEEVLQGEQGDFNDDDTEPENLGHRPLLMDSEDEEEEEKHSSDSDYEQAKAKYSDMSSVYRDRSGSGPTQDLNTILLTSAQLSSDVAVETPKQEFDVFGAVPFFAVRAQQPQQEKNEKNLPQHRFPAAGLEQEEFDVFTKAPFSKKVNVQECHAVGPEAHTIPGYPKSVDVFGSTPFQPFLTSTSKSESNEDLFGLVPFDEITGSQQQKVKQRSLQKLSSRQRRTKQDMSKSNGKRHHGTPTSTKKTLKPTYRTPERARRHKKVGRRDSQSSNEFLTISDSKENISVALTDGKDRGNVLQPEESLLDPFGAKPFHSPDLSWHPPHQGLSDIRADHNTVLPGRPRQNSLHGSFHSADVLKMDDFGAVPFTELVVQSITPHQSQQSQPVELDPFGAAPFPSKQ
Sequence of CAMK4 (Q16566 whole entry): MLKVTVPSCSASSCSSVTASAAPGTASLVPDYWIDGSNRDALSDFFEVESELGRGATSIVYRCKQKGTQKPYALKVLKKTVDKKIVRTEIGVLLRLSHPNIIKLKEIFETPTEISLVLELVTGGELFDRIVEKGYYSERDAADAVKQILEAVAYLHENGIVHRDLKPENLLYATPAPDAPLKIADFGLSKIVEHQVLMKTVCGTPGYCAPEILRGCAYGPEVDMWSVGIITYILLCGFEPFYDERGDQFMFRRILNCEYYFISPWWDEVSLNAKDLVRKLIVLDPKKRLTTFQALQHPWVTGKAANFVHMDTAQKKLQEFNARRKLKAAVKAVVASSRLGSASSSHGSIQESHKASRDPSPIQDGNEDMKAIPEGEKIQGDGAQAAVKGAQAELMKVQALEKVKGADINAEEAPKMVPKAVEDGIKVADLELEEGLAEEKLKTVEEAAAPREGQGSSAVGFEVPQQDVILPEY
Sequence of CSNK1D (P48730 whole entry): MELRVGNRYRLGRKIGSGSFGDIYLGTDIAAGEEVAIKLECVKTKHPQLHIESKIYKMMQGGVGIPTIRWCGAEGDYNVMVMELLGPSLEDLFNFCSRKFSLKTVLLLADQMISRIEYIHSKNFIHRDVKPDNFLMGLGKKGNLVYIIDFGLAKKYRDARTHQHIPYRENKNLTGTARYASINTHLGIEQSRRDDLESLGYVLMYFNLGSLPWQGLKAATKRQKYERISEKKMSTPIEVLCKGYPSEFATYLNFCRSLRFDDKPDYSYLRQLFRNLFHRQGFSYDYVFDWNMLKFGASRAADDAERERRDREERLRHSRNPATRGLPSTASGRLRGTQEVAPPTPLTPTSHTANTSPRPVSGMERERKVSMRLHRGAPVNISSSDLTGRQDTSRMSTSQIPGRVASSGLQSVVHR
Sequence of LATS2 (Q9NRM7 whole entry): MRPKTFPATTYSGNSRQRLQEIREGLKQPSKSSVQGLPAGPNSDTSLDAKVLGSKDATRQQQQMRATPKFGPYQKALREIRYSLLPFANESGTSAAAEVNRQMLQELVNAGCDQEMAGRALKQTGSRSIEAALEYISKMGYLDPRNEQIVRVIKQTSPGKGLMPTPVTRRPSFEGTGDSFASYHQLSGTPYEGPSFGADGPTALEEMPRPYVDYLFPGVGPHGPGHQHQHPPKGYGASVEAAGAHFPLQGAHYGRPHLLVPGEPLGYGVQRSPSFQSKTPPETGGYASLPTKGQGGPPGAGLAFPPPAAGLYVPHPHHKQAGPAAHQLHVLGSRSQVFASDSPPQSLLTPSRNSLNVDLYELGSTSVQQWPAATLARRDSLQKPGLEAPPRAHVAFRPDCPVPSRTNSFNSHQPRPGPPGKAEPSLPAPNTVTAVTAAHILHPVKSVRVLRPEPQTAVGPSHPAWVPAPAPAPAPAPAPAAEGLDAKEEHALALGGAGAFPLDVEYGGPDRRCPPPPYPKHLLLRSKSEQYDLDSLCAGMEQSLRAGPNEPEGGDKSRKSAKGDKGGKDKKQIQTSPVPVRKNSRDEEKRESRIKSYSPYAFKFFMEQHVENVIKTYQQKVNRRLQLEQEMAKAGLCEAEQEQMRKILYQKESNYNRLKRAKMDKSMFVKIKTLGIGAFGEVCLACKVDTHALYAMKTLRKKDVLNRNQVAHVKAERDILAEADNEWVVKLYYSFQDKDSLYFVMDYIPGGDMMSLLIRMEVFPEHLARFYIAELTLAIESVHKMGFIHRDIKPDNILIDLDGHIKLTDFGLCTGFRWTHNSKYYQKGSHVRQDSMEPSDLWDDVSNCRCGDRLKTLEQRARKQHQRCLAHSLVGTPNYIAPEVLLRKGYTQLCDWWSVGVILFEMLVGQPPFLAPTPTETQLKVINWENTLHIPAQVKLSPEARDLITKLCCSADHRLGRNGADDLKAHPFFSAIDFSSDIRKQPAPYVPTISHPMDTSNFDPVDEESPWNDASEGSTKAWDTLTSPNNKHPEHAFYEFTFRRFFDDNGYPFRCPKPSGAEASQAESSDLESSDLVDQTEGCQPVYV

SMILES: CN1CCN(c2ccc(Nc3nc(Oc4ccc(NC(=O)CCl)cc4)c4cc[nH]c4n3)cc2)CC1 [CPT1-70-1]
- remaining activity at 1 µM (FGFR3; [1]): 35%
- remaining activity at 1 µM (MKNK2; [1]): 100%
- remaining activity at 1 µM (CDC2L5; [1]): 91%
- remaining activity at 1 µM (LCK; [1]): 32%
- remaining activity at 1 µM (ICK; [1]): 100%
- remaining activity at 1 µM (BRAF; [1]): 87%
- remaining activity at 1 µM (CSNK1G3; [1]): 2.6%
- remaining activity at 1 µM (CAMK2D; [1]): 100%
- remaining activity at 1 µM (DYRK1A; [1]): 100%
- remaining activity at 1 µM (CDK8; [1]): 100%
- remaining activity at 1 µM (CAMK4; [1]): 100%
- remaining activity at 1 µM (MAST1; [1]): 100%
- remaining activity at 1 µM (BIKE; [1]): 18%
- remaining activity at 1 µM (CDC2L1; [1]): 100%
- remaining activity at 1 µM (MELK; [1]): 16%
- remaining activity at 1 µM (FAK; [1]): 85%
- remaining activity at 1 µM (FRK; [1]): 100%
- remaining activity at 1 µM (AURKC; [1]): 51%
- remaining activity at 1 µM (AURKB; [1]): 61%
- remaining activity at 1 µM (MST3; [1]): 93%
- remaining activity at 1 µM (LATS2; [1]): 40%
- remaining activity at 1 µM (IRAK1; [1]): 53%
- remaining activity at 1 µM (CLK4; [1]): 6.5%
- remaining activity at 1 µM (CAMKK2; [1]): 68%
- remaining activity at 1 µM (CSNK1D; [1]): 43%
- remaining activity at 1 µM (CASK; [1]): 100%
- remaining activity at 1 µM (ACVR2A; [1]): 100%
- remaining activity at 1 µM (GSK3A; [1]): 100%
- remaining activity at 1 µM (FGFR1; [1]): 2.2%
- remaining activity at 1 µM (MAK; [1]): 100%

SMILES: CCN1CCN(Cc2ccc(NC(=O)c3ccc(C)c(CCc4cnc5[nH]ccc5c4OC)c3)cc2C(F)(F)F)CC1 [HYJ-2-002-1]
- remaining activity at 1 µM (FGFR3; [2]): 28%
- remaining activity at 1 µM (MKNK2; [2]): 7%
- remaining activity at 1 µM (CDC2L5; [2]): 100%
- remaining activity at 1 µM (LCK; [2]): 1.1%
- remaining activity at 1 µM (ICK; [2]): 100%
- remaining activity at 1 µM (BRAF; [2]): 3.7%
- remaining activity at 1 µM (CSNK1G3; [2]): 65%
- remaining activity at 1 µM (CAMK2D; [2]): 100%
- remaining activity at 1 µM (DYRK1A; [2]): 62%
- remaining activity at 1 µM (CDK8; [2]): 9.2%
- remaining activity at 1 µM (CAMK4; [2]): 100%
- remaining activity at 1 µM (MAST1; [2]): 99%
- remaining activity at 1 µM (BIKE; [2]): 96%
- remaining activity at 1 µM (CDC2L1; [2]): 88%
- remaining activity at 1 µM (MELK; [2]): 48%
- remaining activity at 1 µM (FAK; [2]): 91%
- remaining activity at 1 µM (FRK; [2]): 1.4%
- remaining activity at 1 µM (AURKC; [2]): 80%
- remaining activity at 1 µM (AURKB; [2]): 43%
- remaining activity at 1 µM (MST3; [2]): 76%
- remaining activity at 1 µM (LATS2; [2]): 98%
- remaining activity at 1 µM (IRAK1; [2]): 62%
- remaining activity at 1 µM (CLK4; [2]): 69%
- remaining activity at 1 µM (CAMKK2; [2]): 100%
- remaining activity at 1 µM (CSNK1D; [2]): 73%
- remaining activity at 1 µM (CASK; [2]): 100%
- remaining activity at 1 µM (ACVR2A; [2]): 100%
- remaining activity at 1 µM (GSK3A; [2]): 78%
- remaining activity at 1 µM (FGFR1; [2]): 1.2%
- remaining activity at 1 µM (MAK; [2]): 100%
